The source of these data is patent publication US20080312244A1, “Squaric Acid Derivatives as Protein Kinase Inhibitors” (priority 2005, published 2008).

Test system in one data set: not given
Assay: not given
Settings: not given
Broadly, the melting point is the temperature, or range, at which the solid turns liquid. As to `O=c1c(NCc2cccc(O)c2)c(Nc2ccc(O)c(-c3ccccn3)c2)c1=O` [Compound A1, 3-(3-hydroxybenzylamino)-4-(4-hydroxy-3-pyridin-2-ylphenylamino)cyclobut-3-ene-1,2-dione], the melting point is 271 to 272 °C.

In another data set the target is T1, CHK1 kinase (Homo sapiens, UniProt O14757).
T1 construct: glutathione S-transferase (GST); made in house; host or cells: Sf21 (S. frugiperda) insect cells, baculovirus expression vector
T1 sequence (O14757 1-476): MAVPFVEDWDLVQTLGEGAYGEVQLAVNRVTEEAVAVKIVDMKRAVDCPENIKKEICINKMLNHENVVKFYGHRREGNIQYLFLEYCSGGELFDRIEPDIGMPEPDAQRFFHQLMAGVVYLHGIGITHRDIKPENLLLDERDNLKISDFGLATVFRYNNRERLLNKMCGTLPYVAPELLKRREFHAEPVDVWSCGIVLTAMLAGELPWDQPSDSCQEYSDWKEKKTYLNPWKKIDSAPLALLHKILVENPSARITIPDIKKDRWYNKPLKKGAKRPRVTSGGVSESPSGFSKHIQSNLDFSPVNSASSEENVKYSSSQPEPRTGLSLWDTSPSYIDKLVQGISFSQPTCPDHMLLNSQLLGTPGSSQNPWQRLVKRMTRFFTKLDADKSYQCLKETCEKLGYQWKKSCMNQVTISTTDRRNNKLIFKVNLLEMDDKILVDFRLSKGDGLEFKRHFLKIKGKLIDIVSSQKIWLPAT
Kind of data set: Measurement of the CHK1 kinase activity (flashplate / filter binding method). The data set is classed as biochemical. As to conditions: class symbols defined in table footnotes. The method, then: CHK1 kinase is expressed for the purposes of protein production in insect cells (Sf21; S. frugiperda) and subsequent purification by affinity chromatography as fusion protein with glutathione S-transferase in a baculovirus expression vector. The cultivation, infection and digestion of the cells as well as the purification of the fusion protein by column chromatography are carried out in accordance with manufacturer-oriented generic working instructions.
The kinase activity is measured using various available measurement systems. In the scintillation proximity method (Sorg et al., J. of. Biomolecular Screening, 2002, 7, 11-19), the flashplate method or the filter binding test, the radioactive phosphorylation of a protein or peptide as substrate is measured using radioactively labelled ATP (γ^32P-ATP, (γ^33P-ATP). In the case of the presence of an inhibitory compound, a reduced radioactive signal, or none at all, can be detected. Furthermore, homogeneous time-resolved fluorescence resonance energy transfer (HTR-FRET) and fluorescence polarisation (FP) technologies are useful as assay methods (Sills et al., J. of Biomolecular Screening, 2002, 191-214).
The test plates used are 384-well streptavidin-coated Flashplates Plus® from Perkin Elmer (Cat. No. SMP410A001 PK). The assay plate is equilibrated with 75 μl of assay buffer per well 30 min before commencement of the experiment. The buffer is sucked out before commencement of the experiment, and the components of the kinase reaction described below are pipetted onto the plate.
CHK1 kinase, a biotinylated substrate peptide (for example CHKtide: […]), is incubated with radioactively labelled ATP in the presence and absence of test substances at […] and a total volume of 50 μl. The reaction is terminated using 25 μl of a 0.2 M EDTA solution. After incubation for 30 min at room temperature, the supernatants are filtered off with suction, and the wells are washed three times with 100 μl of 0.9% NaCl solution each time. The measurement of the bound radioactivity is carried out by means of a scintillation measuring instrument (Topcount NXT, Perkin-Elmer).
The full value used is the inhibitor-free kinase reaction. This should be approximately in the range 3000-4000 cpm. The pharmacological zero value used is staurosporin in a final concentration of 0.1 μM. The inhibitory values (IC50) are determined using the program RS1_MTS ( ).
Kinase reaction conditions per well:
0.15 μg of CHKtide ([…])
50 μl total volume (1-fold assay buffer reaction conditions)
5-20 mU of CHK1 kinase (diluted in 20 mM MOPS pH7.5, 1 mM EDTA, 0.1% β-mercaptoethanol, 0.01% Brij-35, 5% glycerol, 1 mg/ml of BSA) are incubated for 30 min at room temperature in the presence of 30-200 μM CHKtide in 25.5 μl in 1-fold reaction buffer (8 mM MOPS pH7, 0.2 mM EDTA, 10 mM magnesium acetate, 0.02 mM γ^33P-ATP [500-1000 cpm/pmol]). The reaction is stopped using 5 μl of 0.5 M ortho-phosphoric acid and filtered through P81 filter plates. After the filter plates have been washed a number of times, the bound radioactivity is determined in a scintillation counter.
As usually defined, the IC50 is the concentration needed to halve the response being measured. Molecule `NS(=O)(=O)c1cccc(CNc2c(Nc3ccc(O)c(-c4ccccn4)c3)c(=O)c2=O)c1` [Compound A12, 3-(3-Aminosulfonylbenzylamino)-4-(4-hydroxy-3-pyridin-2-ylphenylamino)cyclobut-3-ene-1,2-dione] returned an IC50 of under 1000 nM.

As to `COc1cccc([C@@H](C)Nc2c(Nc3ccc(O)c(-n4cccn4)c3)c(=O)c2=O)c1` [Compound A76, 3-(4-Hydroxy-3-pyrazol-1-ylphenylamino)-4-[(R)-1-(3-methoxyphenyl)ethylamino]cyclobut-3-ene-1,2-dione], the IC50 was under 1000 nM.

Take `COc1cc(CNc2c(Nc3ccc(O)c(-c4ccccn4)c3)c(=O)c2=O)ccc1F` [Compound A62, 3-(4-Fluoro-3-methoxybenzylamino)-4-(4-hydroxy-3-pyridin-2-ylphenylamino)cyclobut-3-ene-1,2-dione]: the IC50 was over 1000 nM.

In turn, `O=c1c(NCc2cccc(O)c2)c(Nc2ccc(O)c(-n3ccnc3)c2)c1=O` [Compound A74, 3-(3-Hydroxybenzylamino)-4-(3-imidazol-1-yl-4-hydroxyphenylamino)cyclobut-3-ene-1,2-dione] gave an IC50 of over 1000 nM.

The molecule `C[C@@H](Nc1c(Nc2ccc(O)c(-c3ccccn3)c2)c(=O)c1=O)c1cccc(O)c1` [Compound A5, 3-(4-Hydroxy-3-pyridin-2-ylphenylamino)-4-[(R)-1-(3-hydroxyphenyl)ethylamino]cyclobut-3-ene-1,2-dione] displayed an IC50 of under 100 nM.

Consider `O=c1c(NCc2cc(O)cc(O)c2)c(Nc2ccc(O)c(-c3ccccn3)c2)c1=O` [Compound A63, 3-(3,5-Dihydroxybenzylamino)-4-(4-hydroxy-3-pyridin-2-ylphenylamino)cyclobut-3-ene-1,2-dione], for which the IC50 was under 100 nM.

Consider `C[C@@H](Nc1c(Nc2ccc(O)c(-c3ccccn3)c2)c(=O)c1=O)c1ccccc1` [Compound A3, 3-(4-Hydroxy-3-pyridin-2-ylphenylamino)-4-[(R)-1-phenylethylamino]cyclobut-3-ene-1,2-dione], for which the IC50 is over 1000 nM.

Turning to `O=c1c(NCc2cccc(O)c2)c(Nc2ccc(O)c(-n3cccc3)c2)c1=O` [Compound A73, 3-(3-Hydroxybenzylamino)-4-(4-hydroxy-3-pyrrol-1-ylphenylamino)cyclobut-3-ene-1,2-dione], the IC50 is over 1000 nM.

For the molecule `COc1cccc([C@@H](C)Nc2c(Nc3ccc(O)c(-c4ccccn4)c3)c(=O)c2=O)c1` [Compound A4, 3-(4-Hydroxy-3-pyridin-2-ylphenylamino)-4-[(R)-1-(3-methoxyphenyl)ethylamino]cyclobut-3-ene-1,2-dione], the IC50 is over 1000 nM.

`C[C@@H](Nc1c(Nc2cccc(-c3ccccn3)c2)c(=O)c1=O)c1cccc(O)c1` [Compound A6, 3-(3-Pyridin-2-ylphenylamino)-4-[(R)-1-(3-hydroxyphenyl)ethylamino]cyclobut-3-ene-1,2-dione] displayed a 50% inhibitory concentration (IC50) of over 1000 nM.

In the case of `O=c1c(NCc2ccc(F)c(O)c2)c(Nc2ccc(O)c(-c3ccccn3)c2)c1=O` [Compound A65, 3-(4-Fluoro-3-hydroxybenzylamino)-4-(4-hydroxy-3-pyridin-2-ylphenylamino)cyclobut-3-ene-1,2-dione], the IC50 is under 1000 nM.

As to `CN(Cc1cccc(O)c1)c1c(Nc2ccc(O)c(-c3ccccn3)c2)c(=O)c1=O` [Compound A68, 3-[(3-Hydroxybenzyl)methylamino]-4-(4-hydroxy-3-pyridin-2-ylphenylamino)cyclobut-3-ene-1,2-dione], the IC50 was under 1000 nM.

The molecule `O=c1c(NCc2cccc(O)c2)c(Nc2ccc(O)c(-c3ccncc3)c2)c1=O` [Compound A23, 3-(3-Hydroxybenzylamino)-4-(4-hydroxy-3-pyridin-4-ylphenylamino)cyclobut-3-ene-1,2-dione] yielded a 50% inhibitory concentration (IC50) of under 1000 nM.

`O=c1c(NCCc2cccc(O)c2)c(Nc2ccc(O)c(-c3ccccn3)c2)c1=O` [Compound A60, 3-[2-(3-Hydroxyphenyl)ethylamino]-4-(4-hydroxy-3-pyridin-2-ylphenylamino)cyclobut-3-ene-1,2-dione] had a half-inhibitory concentration (IC50) of under 1000 nM.

In the case of `NC(=O)c1cccc(CNc2c(Nc3ccc(O)c(-c4ccccn4)c3)c(=O)c2=O)c1` [Compound A66, 3-(3-Aminocarbonylbenzylamino)-4-(4-hydroxy-3-pyridin-2-ylphenylamino)cyclobut-3-ene-1,2-dione], the concentration for half-maximal inhibition (IC50) was under 1000 nM.

Take `CNS(=O)(=O)c1cccc(CNc2c(Nc3ccc(O)c(-c4ccccn4)c3)c(=O)c2=O)c1` [Compound A67, 3-(3-Methylaminosulfonylbenzylamino)-4-(4-hydroxy-3-pyridin-2-ylphenylamino)cyclobut-3-ene-1,2-dione]: the IC50 was under 1000 nM.

Molecule `O=c1c(NCc2cccc(O)c2)c(Nc2ccc(O)c(-c3ccccn3)c2)c1=O` [Compound A1, 3-(3-hydroxybenzylamino)-4-(4-hydroxy-3-pyridin-2-ylphenylamino)cyclobut-3-ene-1,2-dione] had a half-maximal inhibitory concentration (IC50) of under 100 nM.

In the case of `O=c1c(NCc2cccc(O)c2)c(Nc2ccc(O)c(-c3ccccc3)c2)c1=O` [Compound A2, 3-(3-Hydroxybenzylamino)-4-(4-hydroxy-3-phenylphenylamino)cyclobut-3-ene-1,2-dione], the IC50 is over 1000 nM.

With `COc1cccc([C@H](C)Nc2c(Nc3ccc(O)c(-c4ccccn4)c3)c(=O)c2=O)c1` [Compound A59, 3-(4-Hydroxy-3-pyridin-2-ylphenylamino)-4-[(S)-1-(3-methoxyphenyl)ethylamino]cyclobut-3-ene-1,2-dione], the IC50 was over 1000 nM.

`CC(=O)Nc1cccc(CNc2c(Nc3ccc(O)c(-c4ccccn4)c3)c(=O)c2=O)c1` [Compound A64, 3-(3-Acetamidobenzylamino)-4-(4-hydroxy-3-pyridin-2-ylphenylamino)cyclobut-3-ene-1,2-dione]: the IC50 is under 1000 nM.

As for `O=c1c(NCc2ccc(O)c(O)c2)c(Nc2ccc(O)c(-c3ccccn3)c2)c1=O` [Compound A61, 3-(3,4-Dihydroxybenzylamino)-4-(4-hydroxy-3-pyridin-2-ylphenylamino)cyclobut-3-ene-1,2-dione], the IC50 was under 100 nM.

In turn, `COc1ccc(Nc2c(NCc3cccc(O)c3)c(=O)c2=O)cc1-n1ccnc1` [Compound A72, 3-(3-Hydroxybenzylamino)-4-(3-imidazol-1-yl-4-methoxyphenylamino)cyclobut-3-ene-1,2-dione] yielded a concentration for half-maximal inhibition (IC50) of over 1000 nM.

`O=c1c(NCc2cccc(O)c2)c(Nc2ccc(O)c(-n3cccn3)c2)c1=O` [Compound A75, 3-(3-Hydroxybenzylamino)-4-(4-hydroxy-3-pyrazol-1-ylphenylamino)cyclobut-3-ene-1,2-dione] gave an IC50 of under 1000 nM.

As to `C[C@H](Nc1c(Nc2ccc(O)c(-c3ccccn3)c2)c(=O)c1=O)c1cccc(O)c1` [Compound A10, 3-(4-Hydroxy-3-pyridin-2-ylphenylamino)-4-[(S)-1-(3-hydroxyphenyl)ethylamino]cyclobut-3-ene-1,2-dione], the IC50 is over 1000 nM.
